In ChEMBL document CHEMBL5226288, “A perspective on medicinal chemistry approaches towards adenomatous polyposis coli and Wnt signal based colorectal cancer inhibitors” (Eur J Med Chem, 2021) one finds IC50 data, which are given here for twelve compounds.

Assay [1] has as its system SW480. Put plainly: Antiproliferative activity against human SW480 cells assessed as reduction in cell viability incubated for 72 hrs by MTT assay. The assay is classed as functional, cell-based. To be noted: SW480, 72 h.
The subject of the next assay is LoVo. Put plainly: Antiproliferative activity against human LoVo cells assessed as decrease in cell viability by MTT assay. Type of assay: functional, cell-based. (Formazan colour is commonly taken as a measure of viable cells.)
Assay [2] deals with HCT-116. Description: Antiproliferative activity against human HCT-116 cells assessed as decrease in cell growth incubated for 24 hrs by MTS assay. The conditions noted are these: HCT-116, 24 h. Type of assay: functional, cell-based.
For assay [3], the target named is T1, Poly [ADP-ribose] polymerase tankyrase-2 (Homo sapiens, UniProt Q9H2K2).
T1 sequence (Q9H2K2 whole entry): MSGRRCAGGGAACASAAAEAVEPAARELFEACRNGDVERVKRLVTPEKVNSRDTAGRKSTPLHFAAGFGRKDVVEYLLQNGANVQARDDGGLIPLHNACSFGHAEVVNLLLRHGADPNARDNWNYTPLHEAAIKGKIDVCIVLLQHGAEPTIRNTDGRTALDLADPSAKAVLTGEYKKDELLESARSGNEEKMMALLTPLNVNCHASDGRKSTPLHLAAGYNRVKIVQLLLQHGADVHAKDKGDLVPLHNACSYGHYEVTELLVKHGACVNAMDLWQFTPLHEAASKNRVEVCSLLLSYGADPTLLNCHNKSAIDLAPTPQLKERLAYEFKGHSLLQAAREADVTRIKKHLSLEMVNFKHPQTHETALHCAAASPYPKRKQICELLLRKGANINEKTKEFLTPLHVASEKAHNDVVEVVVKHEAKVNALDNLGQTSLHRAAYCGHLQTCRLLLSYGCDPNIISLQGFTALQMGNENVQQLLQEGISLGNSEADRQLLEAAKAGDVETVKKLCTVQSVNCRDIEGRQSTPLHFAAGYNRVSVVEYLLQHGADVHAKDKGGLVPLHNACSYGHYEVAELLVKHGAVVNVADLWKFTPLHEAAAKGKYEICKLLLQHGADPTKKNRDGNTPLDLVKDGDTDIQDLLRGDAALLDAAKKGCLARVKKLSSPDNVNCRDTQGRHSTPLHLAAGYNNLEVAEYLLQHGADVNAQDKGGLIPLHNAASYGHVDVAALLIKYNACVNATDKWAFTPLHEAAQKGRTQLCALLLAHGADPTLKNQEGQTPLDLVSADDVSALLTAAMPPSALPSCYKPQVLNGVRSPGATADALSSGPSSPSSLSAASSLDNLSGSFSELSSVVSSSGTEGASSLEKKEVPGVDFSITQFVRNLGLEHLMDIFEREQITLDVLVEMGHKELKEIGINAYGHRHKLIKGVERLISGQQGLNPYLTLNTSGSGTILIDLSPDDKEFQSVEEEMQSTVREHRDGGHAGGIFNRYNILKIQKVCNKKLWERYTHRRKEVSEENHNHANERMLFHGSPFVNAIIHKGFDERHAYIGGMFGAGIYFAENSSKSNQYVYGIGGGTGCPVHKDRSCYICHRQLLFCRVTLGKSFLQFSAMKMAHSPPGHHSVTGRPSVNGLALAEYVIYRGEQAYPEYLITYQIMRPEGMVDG
Put plainly: Inhibition of TNKS2 (unknown origin).

Assay [4] deals with T2, Poly [ADP-ribose] polymerase tankyrase-1 (Homo sapiens, UniProt O95271).
T2 sequence (O95271 whole entry): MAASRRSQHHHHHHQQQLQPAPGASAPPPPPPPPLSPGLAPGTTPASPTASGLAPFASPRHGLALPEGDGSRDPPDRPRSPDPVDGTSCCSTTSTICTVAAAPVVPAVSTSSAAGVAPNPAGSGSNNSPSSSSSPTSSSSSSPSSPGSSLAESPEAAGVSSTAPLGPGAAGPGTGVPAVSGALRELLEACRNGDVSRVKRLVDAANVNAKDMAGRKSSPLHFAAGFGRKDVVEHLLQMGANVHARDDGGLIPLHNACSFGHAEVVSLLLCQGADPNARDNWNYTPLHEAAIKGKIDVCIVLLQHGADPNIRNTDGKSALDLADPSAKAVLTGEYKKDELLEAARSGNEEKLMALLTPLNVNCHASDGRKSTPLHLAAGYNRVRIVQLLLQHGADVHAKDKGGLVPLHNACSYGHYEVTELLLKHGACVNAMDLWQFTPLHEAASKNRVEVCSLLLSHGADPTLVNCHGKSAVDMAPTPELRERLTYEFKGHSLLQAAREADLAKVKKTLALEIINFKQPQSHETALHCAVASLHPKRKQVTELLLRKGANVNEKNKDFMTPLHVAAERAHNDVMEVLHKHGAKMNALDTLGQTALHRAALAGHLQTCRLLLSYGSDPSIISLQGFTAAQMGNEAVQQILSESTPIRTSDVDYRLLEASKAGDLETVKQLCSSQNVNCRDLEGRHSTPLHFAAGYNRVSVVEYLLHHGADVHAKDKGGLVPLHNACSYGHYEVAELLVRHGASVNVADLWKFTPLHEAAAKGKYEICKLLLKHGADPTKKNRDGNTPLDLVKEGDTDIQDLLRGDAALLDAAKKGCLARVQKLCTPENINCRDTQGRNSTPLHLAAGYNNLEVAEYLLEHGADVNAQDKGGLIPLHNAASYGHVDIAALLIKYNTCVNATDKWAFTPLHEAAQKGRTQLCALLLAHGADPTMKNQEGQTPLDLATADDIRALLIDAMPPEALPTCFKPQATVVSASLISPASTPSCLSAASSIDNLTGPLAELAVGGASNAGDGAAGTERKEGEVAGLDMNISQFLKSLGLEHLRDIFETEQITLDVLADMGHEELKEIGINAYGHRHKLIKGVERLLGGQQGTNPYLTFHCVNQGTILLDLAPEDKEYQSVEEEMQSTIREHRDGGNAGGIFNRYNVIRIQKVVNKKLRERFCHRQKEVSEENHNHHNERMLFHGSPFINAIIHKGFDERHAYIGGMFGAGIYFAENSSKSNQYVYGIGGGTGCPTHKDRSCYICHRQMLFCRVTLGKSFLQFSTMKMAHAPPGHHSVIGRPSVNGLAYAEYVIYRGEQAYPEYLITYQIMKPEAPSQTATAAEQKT
Description: Inhibition of TNKS1 (unknown origin).

In assay [5] the test system is DLD-1. Description: Antiproliferative activity against human DLD-1 cells assessed as reduction in cell viability by MTS assay. Type of assay: functional, cell-based.
Another assay is filed under the species Mus musculus. Put plainly: Anticancer activity against C57BL/6J mouse small intestine organoid assessed as decrease in cell growth and measured after 4 days by qPCR analysis. The assay is classed as functional. To be noted: 96 h. (In general: In qPCR the cycle at which signal appears reflects the starting amount.)
Assay [6] relates to HCT-116. Put plainly: Cytotoxicity in human HCT-116 cells expressing wild type APC assessed as reduction in cell viability incubated for 96 hrs by Cell Titer-Glo assay. Type of assay: functional, cell-based. To be noted: HCT-116, 96 h. Background: In ATP-based viability assays light output follows the ATP content of the culture.
Assay [7] has as its system DLD-1. Description: Cytotoxicity in human DLD-1 cells expressing APC mutant assessed as reduction in cell viability incubated for 96 hrs by Cell Titer-Glo assay. To be noted: DLD-1, 96 h. The assay is classed as functional, cell-based.
The subject of assay [8] is HCT-116. Put plainly: Anticancer activity against human HCT-116 cells assessed as decrease in cell growth incubated for 72 hrs by tryphan blue staining based cell counter analysis. Type of assay: functional. To be noted: HCT-116, 72 h.
The subject of assay [9] is SW480. Description: Anticancer activity against human SW480 cells assessed as reduction in cell viability incubated for 24 hrs by MTT assay. Type of assay: functional, cell-based. To be noted: SW480, 24 h.
Assay [10] has as its system HCT-116. Description: Anticancer activity against human HCT-116 cells assessed as reduction in cell viability incubated for 24 hrs by MTT assay. Type of assay: functional, cell-based. To be noted: HCT-116, 24 h.
Assay [11] relates to HCT-116. Put plainly: Antiproliferative activity against human HCT-116 cells assessed as reduction in cell proliferation incubated for 24 hrs by MTT assay. The assay is classed as functional, cell-based. The conditions noted are these: HCT-116, 24 h.
For assay [12], the system named is SW480. Description: Antiproliferative activity against human SW480 cells assessed as reduction in cell proliferation incubated for 24 hrs by MTT assay. The assay is classed as functional, cell-based. The conditions noted are these: SW480, 24 h.
Assay [13] deals with SW480. Put plainly: Antiproliferative activity against human SW480 cells assessed as inhibition of cell growth incubated for 48 hrs by MTS assay. Type of assay: functional, cell-based. The conditions noted are these: SW480, 48 h.
The subject of assay [14] is DLD-1. Description: Anticancer activity against human DLD-1 cells assessed as reduction in cell viability. The assay is classed as functional, cell-based.

pIC50: −log10 of the molar value.

By pIC50 is commonly meant the IC50 on a negative log10 scale, so that one unit is a factor of ten. As for `C=C1C(=O)[C@]23CC[C@H]1C[C@H]2[C@@]12CCC[C@@](C)(COC1=O)[C@H]2C[C@H]3O`, the pIC50 in the assay on SW480 [1] was 5.77.
Take `Oc1ccc(/C=C/c2cc(O)cc(O)c2)cc1` [RESVERATROL]: in the assay on LoVo, the pIC50 was 4.26.
`O=C(O[C@@H]1Cc2c(O)cc(O)cc2O[C@@H]1c1cc(O)c(O)c(O)c1)c1cc(O)c(O)c(O)c1` [EPIGALOCATECHIN GALLATE]: the pIC50 with HCT-116 [2] is 5.30.
For the compound `COc1ccc(C2(CNC(=O)c3ccc(NC(=O)c4ccco4)cc3)CCOCC2)cc1`, the pIC50 in assay [3] is 6.07; in assay [4] it was 5.72.
Take `O=c1c(-c2ccc(O)cc2)coc2cc(O)cc(O)c12` [GENISTEIN]: the pIC50 in the assay with DLD-1 [5] is 4.30.
Consider `CS(=O)(=O)c1ccccc1N1CCN(c2nc(O)c3c(n2)CCSC3)CC1`, for which the negative-log IC50 (pIC50) in the assay listed under Mus musculus is 6.96.
Turning to `CC[C@H](C)C(=O)O[C@H]1CCC=C2C=C[C@H](C)[C@H](CC[C@@H]3C[C@@H](O)CC(=O)O3)[C@H]21` [MEVASTATIN], the pIC50 in the assay on HCT-116 [6] was 4.73; with DLD-1 [7] it was 5.49.
For `C=C1C(=O)[C@]23C[C@H]1CCC2[C@@]1(C)C([C@@H](O)[C@@H]3O)[C@](C)(C(=O)O)CC[C@@H]1O` (stereo partly specified), in the assay with HCT-116 [8], the pIC50 is 5.39.
Turning to `CC(C)(C)[Si](OC[C@@]1(C)C2CC[C@@]3(CO3)[C@@H](C/C=C3/C(=O)OC[C@H]3O)[C@]2(C)CC[C@H]1O)(c1ccccc1)c1ccccc1` (stereo partly specified), the pIC50 is 4.79 in the assay with SW480 [9] and 4.74 in the assay with HCT-116 [10].
In the case of `CC1(C)C=Cc2c(ccc(C(=O)/C=C/c3ccccc3)c2O)O1` [LONCHOCARPIN], the pIC50 in the assay on HCT-116 [11] and with SW480 [12] was 4.70 in each case.
With `C=C1C(=O)[C@@]23[C@H](O)C[C@@H]4C(C)(C)CC[C@H](O)[C@@]4(COC(C)=O)[C@@H]2CC[C@H]1[C@H]3O`, in the assay with SW480 [13], the pIC50 was 4.78.
Regarding `NS(=O)(=O)c1ccc(NC(=S)N2CCN(C/C=C/c3ccccc3)CC2)cc1`, in the assay on DLD-1 [14], the pIC50 is 7.74.
